Data: US20220265657A1, “ADMINISTRATION METHOD AND DOSAGE REGIMEN FOR TREATMENT OF NEURODEGENERATIVE DISEASES USING TRAMETINIB AND MARKERS” (GENUV INC., priority 2019, published 2022)

Legend:
primary cortical neurons [1] = assay: Dendritic spine formation in primary cortical neurons; type: cell-based, ICR mice; details: Aβ1-42 oligomer alone
Protocol: Cell culture: SH-SY5Y neuroblastoma cells were cultured at 37° C., 5% CO2., in Dulbecco's Modified Eagle Medium/Ham's F-12 nutrient mixture (DMEM/F12) (Invitrogen, Carlsbad, Calif.) supplemented with 10% heat-inactivated fetal bovine serum containing 100 units/ml penicillin, 100 μg/ml streptomycin. Primary cortical neuron cultures were derived from embryo day 18 (E18) from ICR mice. The dissociated cells were plated on glass cover slips coated with poly-D-lysine in Neurobasal medium supplemented with 2% B27 (Invitrogen), 100 units/ml penicillin, 100 μg/ml streptomycin, and 2 mM L-glutamine. Primary NSCs from normal mice were isolated from the subventricular zone (SVZ) of 8 week-old C57BL/6 mice brain. NSCs from adult Tg2576 mice brain were obtained from Seoul National University Hospital. The neurospheres were cultured as previously described (M. Y. Kim, B. S. Moon, K. Y. Choi, Isolation and maintenance of cortical neural progenitor cells in vitro. Methods Mol Biol 1018, 3-10 (2013)). For neurosphere culture from normal mice, the cells were dissociated from brain tissue and grown in N2 medium in 25 cm^2 flasks (SPL, Gyeonggi-do, Korea) in suspension. bFGF (20 ng/ml, Peprotech, Princeton, N.J.) and human EGF (20 ng/ml, Peprotech) were added to the media to allow the cells to form neurospheres. For analyses, NSCs were cultured as a monolayer. For differentiation of NSCs, the neurospheres were dissociated with TrypLE (Invitrogen), plated on 15 μg/ml poly-L-ornithine-(Sigma-Aldrich, St. Louis, Mo.) and 10 μg/ml fibronectin (Gibco)-coated plates, and cultured in bFGF- and EGF-depleted N2 medium for 2 days. For neurosphere culture from Tg2576 mice, the cells were grown in DMEM/F12 supplemented with B27 supplements in 75 cm^2 flasks (SPL) in suspension. bFGF (10 ng/ml) and human EGF (10 ng/ml) were added to the media to allow the cells to form neurospheres. […]

primary cortical neurons [2] = assay: Western blot of primary cortical neurons; type: cell-based, ICR mice; details: Aβ1-42 oligomers alone
Protocol: (§1) Lysates were centrifuged at 13,000 rpm for 20 min at 4° C., and the protein content in the supernatant was determined using the Bradford assay (Bio-rad, Hercules, Calif.). For subcellular fractionation, cells were lysed with lysis buffer (250 mM Sucrose, 20 mM HEPES, pH 7.4, 10 mM KCl, 1.5 mM MgCl2, 1 mM EGTA, 1 mM EDTA, 1 mM DTT) containing protease inhibitor for 30 min on ice, followed by centrifugation at 720 g for 5 min at 4° C. Supernatants were centrifuged at 15,000 rpm for 10 min at 4° C., and the resulting supernatant was used as the cytosol fraction. After centrifugation at 720 g for 5 min, pellets were washed with lysis buffer and dissolved in nuclear lysis buffer (50 mM Tris HCl, pH 8.0, 150 mM NaCl, 1% NP40, 0.5% sodium deoxycholate, 0.1% SDS, 10% glycerol) as the nuclear fraction. Protein from each sample was subjected to 8%˜15% SDS-PAGE, and the resolved proteins were transferred to nitrocellulose or polyvinylidene fluoride membrane. The membranes were blocked with 5% nonfat milk powder in Tris-buffered saline/Tween 20 (TBST) for 1 h at room temperature, then incubated with anti-phospho-ERK (Cell signaling), anti-ERK (Cell signaling), anti-LAMP1 (Abcam), anti-LC3 (Cell signaling), anti-cathepsin B (Cell signaling), anti-p62 (Cell signaling), anti-p62 (5114, Cell signaling), anti-phospho-mTOR (5536, Cell signaling), anti-mTOR (2983, Cell signaling), anti-phospho-ULK1 (14202, Cell signaling), anti-ULK1 (8054, Cell signaling), anti-TFEB (852501, Biolegend), and anti-GAPDH (Cell signaling) overnight at 4° C.

SH-SY5Y cells = assay: Western blot of SH-SY5Y cell lysates; type: cell-based; details: co-treatment with trametinib, in the presence of Aβ1-42 oligomers
Protocol: Cell culture: SH-SY5Y neuroblastoma cells were cultured at 37° C., 5% CO2., in Dulbecco's Modified Eagle Medium/Ham's F-12 nutrient mixture (DMEM/F12) (Invitrogen, Carlsbad, Calif.) supplemented with 10% heat-inactivated fetal bovine serum containing 100 units/ml penicillin, 100 μg/ml streptomycin. Primary cortical neuron cultures were derived from embryo day 18 (E18) from ICR mice. The dissociated cells were plated on glass cover slips coated with poly-D-lysine in Neurobasal medium supplemented with 2% B27 (Invitrogen), 100 units/ml penicillin, 100 μg/ml streptomycin, and 2 mM L-glutamine. Primary NSCs from normal mice were isolated from the subventricular zone (SVZ) of 8 week-old C57BL/6 mice brain. NSCs from adult Tg2576 mice brain were obtained from Seoul National University Hospital. The neurospheres were cultured as previously described (M. Y. Kim, B. S. Moon, K. Y. Choi, Isolation and maintenance of cortical neural progenitor cells in vitro. Methods Mol Biol 1018, 3-10 (2013)). For neurosphere culture from normal mice, the cells were dissociated from brain tissue and grown in N2 medium in 25 cm^2 flasks (SPL, Gyeonggi-do, Korea) in suspension. bFGF (20 ng/ml, Peprotech, Princeton, N.J.) and human EGF (20 ng/ml, Peprotech) were added to the media to allow the cells to form neurospheres. For analyses, NSCs were cultured as a monolayer. For differentiation of NSCs, the neurospheres were dissociated with TrypLE (Invitrogen), plated on 15 μg/ml poly-L-ornithine-(Sigma-Aldrich, St. Louis, Mo.) and 10 μg/ml fibronectin (Gibco)-coated plates, and cultured in bFGF- and EGF-depleted N2 medium for 2 days. For neurosphere culture from Tg2576 mice, the cells were grown in DMEM/F12 supplemented with B27 supplements in 75 cm^2 flasks (SPL) in suspension. bFGF (10 ng/ml) and human EGF (10 ng/ml) were added to the media to allow the cells to form neurospheres. For inducing differentiation and AP expression, the neurospheres were dissociated with pipetting, plated on 15 μg/ml poly-L-ornithine- and 10 μg/ml fibronectin (Gibco)-coated plates, and cultured in bFGF- and EGF-depleted medium for 2 days.
as §1

Aβ1-42 oligomers: cytotoxic oligomers of Aβ1-42 used to induce neurotoxic conditions
decrease in number of dendritic spines compared to vehicle treated group (CTL) (primary cortical neurons [1]): 24%
decrease of mature cathepsin B level compared to non-treated neurons (CTL) (primary cortical neurons [2]): 26%

CO/C1=C\C(C)=C\[C@@H](C)[C@@H](O)[C@@H](C)C/C(C)=C/C=C/[C@H](OC)[C@@H]([C@@H](C)[C@@H](O)[C@H](C)[C@@]2(O)C[C@@H](O)[C@H](C)[C@@H](C(C)C)O2)OC1=O [bafilomycin A1]
effect of trametinib on increasing mature cathepsin B and decreasing p62 (SH-SY5Y cells): eliminated the effect of trametinib
